The test system of experiment [1] is Cricetinae gen. sp. In words: Inhibition of lipid synthesis in hamster flank gland after administration of 0.1 mg. The class given is functional.
Experiment [2] has as its system Cricetinae gen. sp. In words: Inhibition of increase in flank organ weight after administration of 0.5 mg. The class given is functional, Cricetulus griseus.
In experiment [3] the test system is Cricetinae gen. sp. In words: The compound was tested for the seminal vesicle weight after -0.75 ug topical application for 14 days. The class given is functional, Cricetulus griseus.
For experiment [4], the system named is Cricetinae gen. sp. In words: The compound was tested for the seminal vesicle weight after -1 mg sc administration for 14 days. The class given is functional, Cricetulus griseus.
The test system of experiment [5] is Cricetinae gen. sp. Description: Inhibition of increase in flank organ weight after administration of 1.0 mg. Type of experiment: functional, Cricetulus griseus.
The subject of experiment [6] is Cricetinae gen. sp. In words: The compound was tested for the treated flank organ weight after -0.375 ug topical application for 14 days. The class given is functional, Cricetulus griseus.
Experiment [7] deals with Cricetinae gen. sp. Description: The compound was tested for the treated flank organ weight after -0.75 ug topical application for 14 days. Type of experiment: functional, Cricetulus griseus.
Experiment [8] relates to Cricetinae gen. sp. Description: The compound was tested for the seminal vesicle weight after -0.375 ug topical application for 14 days. The class given is functional, Cricetulus griseus.
For experiment [9], the system named is Cricetinae gen. sp. In words: The compound was tested for the seminal vesicle weight after -5 mg sc administration for 14 days. Type of experiment: functional, Cricetulus griseus.
Experiment [10] relates to Cricetinae gen. sp. In words: The compound was tested for the treated flank organ weight after -1 mg sc administration for 14 days. Type of experiment: functional, Cricetulus griseus.
Experiment [11] concerns Cricetinae gen. sp. Description: The compound was tested for the treated flank organ weight after -5 mg sc administration for 14 days. The class given is functional, Cricetulus griseus.

A value given as a limit tells only on which side of the number the result lay.

In general, Inhibition refers to the relative decrease from the control value, in per cent. A higher Inhibition goes with strong suppression. In turn, `C[C@]12C=CC(=O)C=C1CCC1C2[C@@H](O)C[C@@]2(C)C1CC[C@H]2SCc1ccccc1` (stereo partly specified) came in with an Inhibition in the experiment on Cricetinae gen. sp. [1] of 0%.
With `C[C@]12C=CC(=O)C=C1CCC1C2CC[C@@]2(C)C1CC[C@]2(Cl)[S+]([O-])Cc1ccccc1` (stereo partly specified), the Inhibition in the experiment on Cricetinae gen. sp. [1] was less than 40%.
On the same count and under the same terms, to `C[C@]12C=CC(=O)C=C1CCC1C2C(=O)C[C@@]2(C)C1CC[C@H]2Sc1ccccc1` (stereo partly specified) belongs less than 25%; to `C[C@]12C=CC(=O)C=C1CCC1C2C(=O)C[C@@]2(C)C1CC[C@H]2SCc1ccccc1` (stereo partly specified), less than 29%.
As for `C[C@]12C=CC(=O)C=C1CCC1C2C(=O)C[C@@]2(C)C1CC[C@]2(Cl)[S+]([O-])CCc1ccccc1` (stereo partly specified), the Inhibition in the experiment with Cricetinae gen. sp. [1] worked out at 0%; in the experiment with Cricetinae gen. sp. [2] it was 16%.
With `C[C@]12C=CC(=O)C=C1CCC1C2CC[C@@]2(C)C1CC[C@H]2SCc1ccccc1` (stereo partly specified), the Inhibition in the experiment on Cricetinae gen. sp. [1] is listed as 0%.
In the experiment on Cricetinae gen. sp. [1], `C[C@]12C=CC(=O)C=C1CCC1C2C(=O)C[C@@]2(C)C1CC[C@H]2[S+]([O-])C(Cl)c1ccccc1` (stereo partly specified) yielded an Inhibition of 0%.
As to `C[C@]12C=CC(=O)C=C1CCC1C2C(=O)C[C@@]2(C)C1CC[C@]2(Cl)S(=O)(=O)Cc1ccccc1` (stereo partly specified), the Inhibition in the experiment with Cricetinae gen. sp. [1] is less than 31%.
On the same count and under the same terms, to `C[C@]12C=CC(=O)C=C1CCC1C2[C@@H](O)C[C@@]2(C)C1CC[C@]2(Cl)[S+]([O-])Cc1ccccc1` (stereo partly specified) belongs less than 20%; to `CCCCC[S+]([O-])[C@@]1(Cl)CCC2C3CCC4=CC(=O)C=C[C@]4(C)C3C(=O)C[C@@]21C` (stereo partly specified), less than 29%.
`C[C@]12C=CC(=O)C=C1CCC1C2C(=O)C[C@@]2(C)C1CC[C@]2(Cl)[S+]([O-])Cc1ccccc1` (stereo partly specified): the Inhibition in the experiment on Cricetinae gen. sp. [1] was less than 70%; with Cricetinae gen. sp. [5], 53%; in the experiment with Cricetinae gen. sp. [2], 43%. In addition, the Organ weight with Cricetinae gen. sp. [3] was 358 mg; with Cricetinae gen. sp. [4], 138 mg; in the experiment on Cricetinae gen. sp. [6], less than 29.5 mg; in the experiment on Cricetinae gen. sp. [7], less than 23.7 mg; in the experiment on Cricetinae gen. sp. [8], 351 mg; in the experiment with Cricetinae gen. sp. [9] it was 128 mg. In addition, the Organ weight in the experiment with Cricetinae gen. sp. [10] is given as less than 21.5 mg; in the experiment with Cricetinae gen. sp. [11], less than 19.5 mg.
As for `C[C@]1(O)CC[C@H]2[C@@H]3CCC4=CC(=O)CC[C@@H]4[C@H]3CC[C@@]21C` [NORMETHANDRONE], the Organ weight with Cricetinae gen. sp. [3] is less than 283 mg; in the experiment with Cricetinae gen. sp. [4], 121 mg; in the experiment on Cricetinae gen. sp. [6] it was less than 15.6 mg; in the experiment with Cricetinae gen. sp. [7] it was less than 13.7 mg; in the experiment with Cricetinae gen. sp. [8], 316 mg; in the experiment with Cricetinae gen. sp. [9], less than 94 mg. Moreover, the Organ weight is less than 22.5 mg with Cricetinae gen. sp. [10] and less than 22.1 mg in the experiment on Cricetinae gen. sp. [11].
In the experiment on Cricetinae gen. sp. [1], `[O-][S+](Cc1ccccc1)[C@@H](Cl)c1ccccc1` (stereo partly specified) showed an Inhibition of 14%.
Same read-out and setting: to `C[C@]12C=CC(=O)C=C1CCC1C2C(=O)C[C@@]2(C)C1CC[C@H]2[S+]([O-])Cc1ccccc1` (stereo partly specified) belongs 28%; to `Cc1ccccc1C[S+]([O-])[C@@]1(Cl)CCC2C3CCC4=CC(=O)C=C[C@]4(C)C3C(=O)C[C@@]21C` (stereo partly specified), 31%.
Regarding `C[C@]12C=CC(=O)C=C1CCC1C2C(=O)C[C@@]2(C)C1CC[C@]2(Cl)[S+]([O-])Cc1ccc(Cl)cc1Cl` (stereo partly specified), in the experiment on Cricetinae gen. sp. [1], the Inhibition amounted to 20%.
Still for that read-out and setting: to `[O-][S+](CCl)Cc1ccccc1` (stereo unspecified) belongs 14%; to `C[C@]12C=CC(=O)C=C1CCC1C2C(=O)C[C@@]2(C)C1CC[C@]2(Cl)[S+]([O-])c1ccccc1` (stereo partly specified), 20%.

These data come from ChEMBL document CHEMBL1122313, “Novel 17 alpha-chloro-17 beta-sulfinyl steroids as specific inhibitors of sebaceous gland activity: potential antiacne agents” (1983).
